The source of these data is patent publication US20110053908A1, “AZETIDINE-DERIVED COMPOUNDS, PREPARATION METHOD THEREFOR AND THERAPEUTIC USE OF SAME” (SANOFI-AVENTIS, priority 2008, published 2011).

Structures can show the parent of a compound that is named as a salt.

Series [1] concerns the target T1, CB1-type cannabinoid receptor (Mus musculus, UniProt P47746).
T1 construct: male CD1 mice receive the test product per os; from tissue; host or cells: whole animal, male CD1 mice
The series can be described thus: inhibition of gastrointestinal transit induced by racemic CP55,940 in mice (charcoal bolus). To be noted: 1 mg/kg po; male CD1 mice; CP55,940 0.15 mg/kg ip; progression of charcoal bolus. In kind it is in vivo. The source says: Thirty minutes later, the animals are sacrificed by euthanasia (CO2/O2) and the intestine is dissected. The progression of the charcoal bolus in the intestine is expressed as percentage of the total length of the intestine.
Consequently, the compounds of the invention of formula (I) are in vitro and in vivo CB1-type cannabinoid receptor antagonists. Some compounds are active in vivo with regard to both the hypothermia test and the transit test, and some compounds show activities split up between the hypothermia test and the transit test.

Another series addresses T2, human CB1 receptor (Homo sapiens, UniProt P21554).
T2 construct: U373MG cells naturally expressing the human CB1 receptor; endogenous in cells; host or cells: U373MG cells
Put plainly: intracellular cyclic AMP functional test in U373MG cells (HTRF cAMP Dynamic Kit). In kind it is cell-based. As to conditions: U373MG cells naturally expressing the human CB1 receptor. As to the method: The compounds according to the invention have formed the subject of pharmacological assays which make it possible to determine the activity with regard to human CB1-type cannabinoid receptors. The effectiveness of the compounds of formula (I) was determined in a functional test in which the activity of the CB1 cannabinoid receptors is measured (intracellular cyclic AMP test). The test for detecting intracellular cyclic AMP in U373MG cells naturally expressing the human CB1 receptor was carried out as described in the reference: Bouaboula et al., 1995, J. Biol. Chem. 270: 13973-13980. The HTRF cAMP Dynamic Kit from CisBio was used to quantify the intracellular cyclic AMP. In this test, the IC50 values are between 0.001 μM and 2 μM.
For orientation: TR-FRET usually uses a lanthanide donor and a delayed reading to cut background.

A further series deals with T3, CB cannabinoid receptor (Mus musculus, UniProt P47746).
T3 construct: from tissue; host or cells: whole animal, male CD1 mice
The series can be described thus: hypothermia induced by CB agonist racemic CP55,940 in mice (rectal temperature). It counts as in vivo. To be noted: 3 mg/kg po; male CD1 mice; CP55,940 1.25 mg/kg i.p.; rectal temperature at 90 minutes. As for the experimental part:
Other assays consisting in measuring the in vivo activity of the compounds of the invention were carried out. Their antagonist activity was shown by means of the model of […] induced by a CB cannabinoid receptor agonist (racemic CP55,940 ((1RS,3RS,4RS)-3-[2-hydroxy-4-(1,1-dimethylheptyl)phenyl]-4-(3-hydroxypropyl)cyclohexan-1-ol) at a dose of 1.25 mg/kg) in mice, according to the method described by Pertwee R. G. in Marijuana 84, Harvey D. J. eds., Oxford IRL
Press, 263-277 (1985). At time 0 min, the rectal temperature of male CD1 mice is measured before injection of the test product. At 30 minutes, a further measurement of the rectal temperature of the mice is taken and the racemic CP55,940 agonist ((1RS,3RS,4RS)-3-[2-hydroxy-4-(1,1-dimethylheptyl)phenyl]-4-(3-hydroxypropyl)cyclohexan-1-ol) (1.25 mg/kg i.p. in 10% cremophor) is administered. At 90 minutes, the rectal temperature is again measured. The results are expressed as % with respect to the control batched injected with CP 55,940 (minimum temperature) and to the carrier batch without treatment with CP55,940 (maximum temperature).

T1 sequence (P47746 whole entry): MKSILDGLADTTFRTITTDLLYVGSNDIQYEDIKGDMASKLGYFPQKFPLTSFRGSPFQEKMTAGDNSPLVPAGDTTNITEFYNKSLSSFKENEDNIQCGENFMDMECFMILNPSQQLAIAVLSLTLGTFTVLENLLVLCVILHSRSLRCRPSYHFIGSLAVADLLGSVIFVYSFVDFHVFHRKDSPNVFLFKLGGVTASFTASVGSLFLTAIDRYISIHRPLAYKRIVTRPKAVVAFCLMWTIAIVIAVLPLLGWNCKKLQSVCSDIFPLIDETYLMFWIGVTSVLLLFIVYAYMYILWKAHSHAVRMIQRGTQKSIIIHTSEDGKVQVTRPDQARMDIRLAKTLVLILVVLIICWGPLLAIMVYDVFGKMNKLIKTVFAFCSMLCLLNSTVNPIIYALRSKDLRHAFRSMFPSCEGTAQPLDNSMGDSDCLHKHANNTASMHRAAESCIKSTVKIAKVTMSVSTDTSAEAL
T2 sequence (P21554 whole entry): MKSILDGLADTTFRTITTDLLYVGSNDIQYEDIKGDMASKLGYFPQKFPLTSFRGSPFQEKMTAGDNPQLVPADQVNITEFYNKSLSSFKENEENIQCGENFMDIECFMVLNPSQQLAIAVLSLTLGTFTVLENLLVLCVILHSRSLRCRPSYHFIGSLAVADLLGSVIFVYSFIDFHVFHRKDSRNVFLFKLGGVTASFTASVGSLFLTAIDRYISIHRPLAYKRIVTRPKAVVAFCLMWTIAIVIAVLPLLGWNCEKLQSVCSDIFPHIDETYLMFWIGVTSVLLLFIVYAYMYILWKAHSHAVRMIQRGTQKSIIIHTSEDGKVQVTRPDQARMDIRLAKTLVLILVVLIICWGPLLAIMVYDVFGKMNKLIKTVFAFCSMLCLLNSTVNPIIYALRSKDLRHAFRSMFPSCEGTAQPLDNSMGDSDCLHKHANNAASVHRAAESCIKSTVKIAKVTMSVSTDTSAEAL
T3 sequence (P47746 whole entry): as the sequence (P47746 whole entry) above

In series [1], `CS(=O)(=O)N(c1cc(C(=O)N[C@H]2CCC[C@@H]2O)cc(C(F)(F)F)c1)C1CN(C(c2ccc(Cl)cc2)c2ccc(Cl)cc2)C1` (racemic) [compound 41, 3-({1-[bis(4-chlorophenyl)methyl]azetidin-3-yl} (methanesulphonyl)amino)-N-((1SR,2SR)-2-hydroxycyclopent-1-yl)-5-(trifluoromethyl)benzamide] displayed a percentage of inhibition of 91%.
As to `CS(=O)(=O)N(c1cc(F)cc(C(=O)N[C@H]2COC[C@@H]2O)c1)C1CN(C(c2ccc(Cl)cc2)c2ccc(Cl)cc2)C1` (racemic) [compound 47, 3-({1-[bis(4-chlorophenyl)methyl]azetidin-3-yl}(methanesulphonyl)amino)-5-fluoro-N-((3SR,4RS)-4-hydroxytetrahydrofuran-3-yl)benzamide], the half-maximal inhibitory concentration (IC50) (in general, the concentration needed to halve the response being measured) at human CB1 receptor worked out at 72 nM.
With `CC(CO)NC(=O)c1cc(F)cc(N(C2CN(C(c3ccc(Cl)cc3)c3ccc(Cl)cc3)C2)S(C)(=O)=O)c1` (single isomer, unassigned; (+)) [Compound No. 25, (+)-3-({1-[Bis(4-chlorophenyl)methyl]azetidin-3-yl}(methanesulphonyl)amino)-5-fluoro-N-(2-hydroxy-1-methylethyl)benzamide], the melting point – broadly, the temperature, or range, at which the solid turns liquid – lay in the range of 148 to 150 °C. This compound also registered a percentage of inhibition on CB cannabinoid receptor of 18%.
`CC1(C)OCC(CNC(=O)c2cccc(N(C3CN(C(c4ccc(Cl)cc4)c4ccc(Cl)cc4)C3)S(C)(=O)=O)c2)O1` (single isomer, unassigned; (-)) [Compound No. 5, (−)-3-({1-[Bis(4-chlorophenyl)methyl]azetidin-3-yl}(methanesulphonyl)amino)-N-(2,2-dimethyl-1,3-dioxolan-4-ylmethyl)benzamide] came in with a 50% inhibitory concentration (IC50) on human CB1 receptor of 22 nM.
The compound `CS(=O)(=O)N(c1cccc(C(=O)NCCO)c1)C1CN(C(c2ccc(Cl)cc2)c2ccc(Cl)cc2)C1` [Compound No. 7, 3-({1-[Bis(4-chlorophenyl)methyl]azetidin-3-yl}(methanesulphonyl)amino)-N-(2-hydroxyethyl)benzamide hydrochloride (1:1)] returned an IC50 at human CB1 receptor of 61 nM.
Turning to `C[C@@H](CO)NC(=O)c1cccc(N(C2CN(C(c3ccc(Cl)cc3)c3ccc(Cl)cc3)C2)S(C)(=O)=O)c1` [Compound No. 9, (+)-3-({1-[Bis(4-chlorophenyl)methyl]azetidin-3-yl}(methanesulphonyl)amino)-N-(2-hydroxy-1-methylethyl)benzamide], the melting point fell in the range of 192 to 194 °C. In series [1], this compound registered a percentage of inhibition of 82%. On human CB1 receptor, the midpoint of inhibition, the IC50, lay at 15 nM. On CB cannabinoid receptor, the percentage of inhibition is listed as 30%.
`CS(=O)(=O)N(c1cccc(C(=O)NC(CO)CO)c1)C1CN(C(c2ccc(Cl)cc2)c2ccc(Cl)cc2)C1` [Compound No. 17, 3-({1-[Bis(4-chlorophenyl)methyl]azetidin-3-yl}(methanesulphonyl)amino)-N-(2-hydroxy-1-(hydroxymethyl)ethyl)benzamide] returned a melting point of 192 to 194 °C.
`CS(=O)(=O)N(c1cc(F)cc(C(=O)NC(CO)CO)c1)C1CN(C(c2ccc(Cl)cc2)c2ccc(Cl)cc2)C1` [Compound No. 26, 3-({1-[Bis(4-chlorophenyl)methyl]azetidin-3-yl}(methanesulphonyl)amino)-5-fluoro-N-(2-hydroxy-1-(hydroxymethyl)ethyl)benzamide] registered a melting point of 144 to 146 °C. The compound also gave an IC50 against human CB1 receptor of 20 nM.
As to `CC(CO)(CO)NC(=O)c1cc(F)cc(N(C2CN(C(c3ccc(Cl)cc3)c3ccc(Cl)cc3)C2)S(C)(=O)=O)c1` [Compound No. 27, 3-({1-[Bis(4-chlorophenyl)methyl]azetidin-3-yl}(methanesulphonyl)amino)-5-fluoro-N-(2-hydroxy-1-hydroxymethyl-1-methylethyl)benzamide], the melting point was 159 to 161 °C. The percentage of inhibition in series [1] is given as 58%.
The compound `CC(C)(O)CNC(=O)c1cccc(N(C2CN(C(c3ccc(Cl)cc3)c3ccc(Cl)cc3)C2)S(C)(=O)=O)c1` [compound 13, 3-({1-[bis(4-chlorophenyl)methyl]azetidin-3-yl}(methanesulphonyl)amino)-N-(2-hydroxy-2-methylprop-1-yl)benzamide] yielded a melting point of 140 °C.
`CC(C)(CO)NC(=O)c1cccc(N(C2CN(C(c3ccc(Cl)cc3)c3ccc(Cl)cc3)C2)S(C)(=O)=O)c1` [compound 16, 3-({1-[bis(4-chlorophenyl)methyl]azetidin-3-yl}(methanesulphonyl)amino)-N-(2-hydroxy-1,1-dimethylethyl)benzamide]: the melting point turned out to be 162 °C.
Compound `CC(CO)(CO)NC(=O)c1cccc(N(C2CN(C(c3ccc(Cl)cc3)c3ccc(Cl)cc3)C2)S(C)(=O)=O)c1` [compound 18, 3-({1-[bis(4-chlorophenyl)methyl]azetidin-3-yl}(methanesulphonyl)amino)-N-[1,3-dihydroxy-2-methylprop-2-yl]benzamide] gave a melting point of 192 °C. The compound also returned an IC50 on human CB1 receptor of 6 nM.
At human CB1 receptor, `CS(=O)(=O)N(c1cccc(C(=O)NC2(CCO)CC2)c1)C1CN(C(c2ccc(Cl)cc2)c2ccc(Cl)cc2)C1` [compound 21, 3-({1-[bis(4-chlorophenyl)methyl]azetidin-3-yl}(methanesulphonyl)amino)-N-[1-(2-hydroxyethyl)cyclopropyl]benzamide] registered an IC50 of 38 nM.
For `CS(=O)(=O)N(c1cc(F)cc(C(=O)NCC(O)C(F)(F)F)c1)C1CN(C(c2ccc(Cl)cc2)c2ccc(Cl)cc2)C1` (centres unmarked) [compound 30, 3-({1-[bis(4-chlorophenyl)methyl]azetidin-3-yl}(methanesulphonyl)amino)-5-fluoro-N-(3,3,3-trifluoro-2-hydroxyprop-1-yl)benzamide], the IC50 against human CB1 receptor was 66 nM.
Take `C[C@@H](CO)NC(=O)c1cc(N(C2CN(C(c3ccc(Cl)cc3)c3ccc(Cl)cc3)C2)S(C)(=O)=O)cc(C(F)(F)F)c1` [compound 36, (+)-3-({1-[bis(4-chlorophenyl)methyl]azetidin-3-yl}(methanesulphonyl)amino)-N—((S)-1-hydroxyprop-2-yl)-5-(trifluoromethyl)benzamide]: the percentage of inhibition in series [1] was 85%. Moreover, the IC50 on human CB1 receptor came out at 16 nM.
